Experimental data as given in ChEMBL document CHEMBL3885861, “Open TG-GATES”.

Species on record: Rattus norvegicus
Assay: Open TG-GATES - Regimen: Daily Repeat
Assay type: toxicity, organism-based, Sprague-Dawley
Design: regimen Daily Repeat, gender Male, age 6 weeks
Details: in vivo, po, 30 mg/kg, route gavage, dose level High; for APTT / Bas / Eos / Fbg / Hb / Ht / Lym / MCH / MCHC / MCV / Mono / Neu / PT / Plat / RBC / Ret / WBC: tissue Blood
[1] = 72 h, tissue Kidney, time 3 day
[2] = 72 h, tissue Plasma, time 3 day

## Nc1c2c(nc3ccccc13)CCCC2 [TACRINE]
72 h, time 3 day
  TERMINAL_BW: 194.7 g
  APTT: 21.3 s
  Bas: 0%
  Eos: 0.7%
  Fbg: 361.7 mg/dL
  Hb: 14.3 g/dL
  Ht: 40.7%
  Lym: 73%
  MCH: 21 pg
  MCHC: 35.1%
  MCV: 59.8 fL
  Mono: 2.7%
  Neu: 22%
  PT: 16.1 s
  Plat: 120.4 x10_4/uL
  RBC: 681.7 x10_4/ul
  Ret: 3%
  WBC: 79 x10_2/uL
[1]
  KIDNEY_L: 0.9 g
  KIDNEY_R: 0.9 g
  KIDNEY_TOTAL: 1.9 g
72 h, tissue Liver, time 3 day
  LIVER: 8.6 g
[2]
  A/G: 1.2
  ALP: 1465.3 IU/L
  ALT: 37.3 IU/L
  AST: 82.7 IU/L
  BUN: 16.3 mg/dL
  CRE: 0.2 mg/dL
  Ca: 10.8 mg/dL
  Cl: 107.3 meq/L
  DBIL: 0.0067 mg/dL
  GLC: 169 mg/dL
  IP: 7.4 mg/dL
  K: 4.1 meq/L
  LDH: 229.7 IU/L
  Na: 140.7 meq/L
  PL: 142.7 mg/dL
  RALB: 3.2 g/dL
  TBIL: 0.0233 mg/dL
  TC: 84 mg/dL
  TG: 52 mg/dL
  TP: 5.8 g/dL
  gamma-GTP: 1 IU/L
[…], time 7 day
  TERMINAL_BW: 217.1 g
  APTT: 22.7 s
  Bas: 0%
  Eos: 0.7%
  Fbg: 325.7 mg/dL
  Hb: 14.2 g/dL
  Ht: 40.2%
  Lym: 73%
  MCH: 21.1 pg
  MCHC: 35.3%
  MCV: 59.7 fL
  Mono: 3.3%
  Neu: 22.3%
  PT: 16.2 s
  Plat: 127.6 x10_4/uL
  RBC: 673.7 x10_4/ul
  Ret: 4.7%
  WBC: 124.6 x10_2/uL
[…], time 14 day
  TERMINAL_BW: 249.3 g
  APTT: 23.8 s
  Bas: 0%
  Eos: 1%
  Fbg: 320 mg/dL
  Hb: 15.1 g/dL
  Ht: 41.9%
  Lym: 79.3%
  MCH: 20.4 pg
  MCHC: 36%
  MCV: 56.8 fL
  Mono: 1.7%
  Neu: 17.3%
  PT: 15.8 s
  Plat: 126 x10_4/uL
  RBC: 737.3 x10_4/ul
  Ret: 3.5%
  WBC: 110.7 x10_2/uL
[…], time 28 day
  TERMINAL_BW: 315.1 g
  APTT: 21.4 s
  Bas: 0%
  Eos: 1%
  Fbg: 295 mg/dL
  Hb: 15 g/dL
  Ht: 41.2%
